Test results: patent US8765746B2 (Millennium Pharmaceuticals, Inc., priority 2010, dated 2014)

How the values were obtained:
Assay type in all cases: biochemical
[1] = target: T1, PI3Kalpha (Homo sapiens, UniProt P42336); assay: Human PI3Kα enzyme assay (HTRF); conditions: for inhibition at 1.11 µM: read-out: PI3Kalpha % inh; for PI3Kalpha % inh: at 1.11 μM
T1 construct: His (N); host or cells: SF9 insect cells (baculovirus)
In short: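 His-tagged p110α co-expressed with p85 in Sf9 cells was reacted for 30 min at room temperature in pH 7.00 Hepes buffer with 10 mM MgCl2. Addition solutions held 25 uM ATP, 3.5 uM di-C8 PI(4,5)P2 and 0.4875 nM enzyme. The reaction was quenched with EDTA/biotin-PIP3 and detected by HTRF (GST-GRP-1 PH domain, streptavidin-XL, Eu anti-GST) after 1 h.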

[2] = target: T2, PI3Kdelta (Homo sapiens, UniProt O00329); assay: Human PI3K delta enzyme assay (HTRF, as for PI3K alpha); conditions: for inhibition at 1.11 µM: read-out: PI3Kdelta % inh; for PI3Kdelta % inh: at 1.11 μM
T2 construct: His (N); host or cells: SF9 insect cells (baculovirus)
In short: (§1)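 N-His p110β/δ co-expressed with untagged p85 in Sf9, p110γ alone. Enzyme 5.25 nM (β), 0.75 nM (δ), 5 nM (γ), with ATP 25 uM and di-C8 PI(4,5)P2 3.5 uM (added-solution levels), pH 7.00, 30 min RT. HTRF read-out: biotin-PIP3, GST-GRP-1 PH domain, Eu anti-GST, streptavidin-XL.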

[3] = target: T3, PI3Kgamma (Homo sapiens, UniProt P48736); assay: Human PI3K gamma enzyme assay (HTRF, as for PI3K alpha); conditions: for inhibition at 1.11 µM: read-out: PI3Kgamma % inh; for PI3Kgamma % inh: at 1.11 μM
T3 construct: His (N); host or cells: SF9 insect cells (baculovirus)
In short: as §1

[4] = target: T4, VPS34 (Homo sapiens, UniProt Q8NEB9); assay: Human VPS34 enzyme assay (Adapta Universal Kinase Assay); conditions: for inhibition at 1.11 µM: 1 h, read-out: VPS34 % ihn; for VPS34 % ihn: at 1.11 μM
T4 construct: GST (N); host or cells: SF9 insect cells (baculovirus)
Protocol: VPS34 (accession number GB:BC033004) is cloned into pDEST20-Thombin as N-terminal GST tagged fusion proteins using the Gateway system (Invitrogen, catalog#11804-013). The sequences are verified before recombinant protein expression using the Baculovirus Expression System with Gateway® Technology.
For expression VPS34 was infected at 1MOI in SF9 cells and harvested 72 hours post infection.
For purification, VPS34 is purified by Glutathione Sepharose 4 Fast Flow (GE Healthcare #17-5132-03) followed by HiTrap Q (GE Healthcare #17-1153-01).
3) VPS34 is assayed using Adapta™ Universal Kinase Assay Kit (Invitrogen).
4) Human VPS34 enzyme assay method
100 mL compounds in DMSO are added to wells of a 384 well microtitre plate (Greiner 780076). At room temperature: 5 ul VPS34 reaction buffer (Invitrogen Assay Buffer Q (diluted 1 in 5 with nanopure water) plus 2 mM DTT and 2 mM MnCl2) containing ATP (20 uM, Promega) and 200 uM PI-PS substrate (Invitrogen PV5122) is added followed immediately by 5 ul VPS34 reaction buffer (as above) containing VPS34 (5 nM, Millennium Protein Sciences Group) and the mixture is incubated with shaking at room temperature for 1 hour. Then 5 ul VPS34 stop-detect mix (as per Invitrogen Adapta Assay kit (PV5009) instructions (contains kinase quench buffer, TR-FRET buffer, Adapta Eu anti-ADP antibody and Alexa Fluor 647 ADP tracer)) is added to quench the reaction. The plates are then incubated for 30 minutes at room temperature with shaking and then read on a BMG PheraStar Plus reader.

[5] = target: T5, PI3Kbeta (Homo sapiens, UniProt P42338); assay: Human PI3K beta enzyme assay (HTRF, as for PI3K alpha); conditions: for inhibition at 1.11 µM: read-out: PI3Kbeta % inh; for IC50: read-out: IC50 (inhibit PI3Kbeta); for inhibition at 1.11 µM / PI3Kbeta % inh: at 1.11 μM
T5 construct: His (N); host or cells: SF9 insect cells (baculovirus)
In short: as §1

T5 sequence (P42338 whole entry): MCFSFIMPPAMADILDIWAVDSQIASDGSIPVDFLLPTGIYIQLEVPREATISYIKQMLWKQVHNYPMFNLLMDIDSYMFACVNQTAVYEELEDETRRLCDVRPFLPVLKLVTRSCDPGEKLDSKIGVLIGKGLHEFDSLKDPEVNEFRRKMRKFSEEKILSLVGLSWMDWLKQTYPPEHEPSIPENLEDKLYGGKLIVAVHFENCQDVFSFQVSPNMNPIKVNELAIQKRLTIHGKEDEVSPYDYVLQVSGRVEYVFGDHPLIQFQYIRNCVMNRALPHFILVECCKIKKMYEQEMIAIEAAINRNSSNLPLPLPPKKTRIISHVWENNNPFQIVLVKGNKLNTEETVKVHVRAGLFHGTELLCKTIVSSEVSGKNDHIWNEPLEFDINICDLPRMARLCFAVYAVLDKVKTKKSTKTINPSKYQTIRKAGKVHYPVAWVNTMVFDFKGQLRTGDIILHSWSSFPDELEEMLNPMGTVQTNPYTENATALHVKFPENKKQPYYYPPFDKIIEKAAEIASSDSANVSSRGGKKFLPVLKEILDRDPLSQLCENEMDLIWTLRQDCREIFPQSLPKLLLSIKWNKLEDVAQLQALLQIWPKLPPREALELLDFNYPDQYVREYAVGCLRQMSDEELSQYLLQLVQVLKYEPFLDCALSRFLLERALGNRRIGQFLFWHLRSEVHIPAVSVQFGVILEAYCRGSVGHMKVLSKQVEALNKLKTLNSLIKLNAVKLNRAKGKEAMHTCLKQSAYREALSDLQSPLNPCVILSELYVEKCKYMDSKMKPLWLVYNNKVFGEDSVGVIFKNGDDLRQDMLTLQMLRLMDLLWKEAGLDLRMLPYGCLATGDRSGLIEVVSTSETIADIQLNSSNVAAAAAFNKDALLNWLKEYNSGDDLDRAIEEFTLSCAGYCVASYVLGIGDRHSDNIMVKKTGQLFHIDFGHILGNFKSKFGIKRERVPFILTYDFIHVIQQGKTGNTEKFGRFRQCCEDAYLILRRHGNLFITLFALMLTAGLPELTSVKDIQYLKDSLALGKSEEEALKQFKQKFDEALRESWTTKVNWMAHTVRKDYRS
T5 sequence (P27986 whole entry partner): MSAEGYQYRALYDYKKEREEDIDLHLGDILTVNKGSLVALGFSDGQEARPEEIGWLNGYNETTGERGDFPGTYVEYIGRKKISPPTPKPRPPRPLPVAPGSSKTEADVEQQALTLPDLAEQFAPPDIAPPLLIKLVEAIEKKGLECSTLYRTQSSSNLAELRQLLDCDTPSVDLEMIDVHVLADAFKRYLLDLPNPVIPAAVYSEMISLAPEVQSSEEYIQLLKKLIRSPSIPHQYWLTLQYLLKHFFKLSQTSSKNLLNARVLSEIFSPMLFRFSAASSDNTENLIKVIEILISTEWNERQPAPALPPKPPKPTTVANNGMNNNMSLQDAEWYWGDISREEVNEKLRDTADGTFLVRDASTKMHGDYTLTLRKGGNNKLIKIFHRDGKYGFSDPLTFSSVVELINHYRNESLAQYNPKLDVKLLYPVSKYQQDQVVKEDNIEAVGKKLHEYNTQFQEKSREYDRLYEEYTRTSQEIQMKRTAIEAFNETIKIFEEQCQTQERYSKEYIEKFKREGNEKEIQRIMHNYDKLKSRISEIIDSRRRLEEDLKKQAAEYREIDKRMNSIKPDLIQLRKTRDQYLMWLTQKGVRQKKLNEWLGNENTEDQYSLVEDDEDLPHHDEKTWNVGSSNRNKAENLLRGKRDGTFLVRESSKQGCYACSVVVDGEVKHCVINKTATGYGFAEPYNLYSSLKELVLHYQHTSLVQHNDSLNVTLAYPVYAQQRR
T2 sequence (O00329 whole entry): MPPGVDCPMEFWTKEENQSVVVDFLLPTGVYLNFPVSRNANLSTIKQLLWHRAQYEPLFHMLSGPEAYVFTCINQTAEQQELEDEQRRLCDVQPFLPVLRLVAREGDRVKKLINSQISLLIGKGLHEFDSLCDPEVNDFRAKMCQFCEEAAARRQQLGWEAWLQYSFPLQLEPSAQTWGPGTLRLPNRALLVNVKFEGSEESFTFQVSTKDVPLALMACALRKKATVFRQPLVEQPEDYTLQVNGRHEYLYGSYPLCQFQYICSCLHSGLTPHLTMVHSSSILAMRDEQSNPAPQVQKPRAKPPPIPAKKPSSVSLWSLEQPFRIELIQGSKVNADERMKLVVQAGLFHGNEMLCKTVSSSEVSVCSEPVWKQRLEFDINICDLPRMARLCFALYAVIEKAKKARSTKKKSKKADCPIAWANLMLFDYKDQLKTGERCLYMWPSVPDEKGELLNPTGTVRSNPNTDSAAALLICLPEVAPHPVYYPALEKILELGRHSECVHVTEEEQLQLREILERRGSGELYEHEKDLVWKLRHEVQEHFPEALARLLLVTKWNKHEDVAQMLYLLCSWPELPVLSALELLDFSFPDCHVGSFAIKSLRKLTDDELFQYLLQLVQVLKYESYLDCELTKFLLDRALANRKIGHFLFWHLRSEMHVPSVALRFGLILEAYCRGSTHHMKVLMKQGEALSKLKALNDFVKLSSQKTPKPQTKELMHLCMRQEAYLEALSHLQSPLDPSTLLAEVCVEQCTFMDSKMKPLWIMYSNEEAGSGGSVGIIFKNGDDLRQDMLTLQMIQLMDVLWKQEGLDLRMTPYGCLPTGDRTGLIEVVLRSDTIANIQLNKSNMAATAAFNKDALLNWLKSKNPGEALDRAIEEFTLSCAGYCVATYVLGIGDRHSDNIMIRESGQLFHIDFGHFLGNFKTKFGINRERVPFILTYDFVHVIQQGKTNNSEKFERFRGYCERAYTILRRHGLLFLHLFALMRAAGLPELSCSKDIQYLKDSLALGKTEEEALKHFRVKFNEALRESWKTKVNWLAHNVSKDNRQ
T2 sequence (P27986 whole entry partner): as the sequence (P27986 whole entry partner) above
T1 sequence (P42336 whole entry): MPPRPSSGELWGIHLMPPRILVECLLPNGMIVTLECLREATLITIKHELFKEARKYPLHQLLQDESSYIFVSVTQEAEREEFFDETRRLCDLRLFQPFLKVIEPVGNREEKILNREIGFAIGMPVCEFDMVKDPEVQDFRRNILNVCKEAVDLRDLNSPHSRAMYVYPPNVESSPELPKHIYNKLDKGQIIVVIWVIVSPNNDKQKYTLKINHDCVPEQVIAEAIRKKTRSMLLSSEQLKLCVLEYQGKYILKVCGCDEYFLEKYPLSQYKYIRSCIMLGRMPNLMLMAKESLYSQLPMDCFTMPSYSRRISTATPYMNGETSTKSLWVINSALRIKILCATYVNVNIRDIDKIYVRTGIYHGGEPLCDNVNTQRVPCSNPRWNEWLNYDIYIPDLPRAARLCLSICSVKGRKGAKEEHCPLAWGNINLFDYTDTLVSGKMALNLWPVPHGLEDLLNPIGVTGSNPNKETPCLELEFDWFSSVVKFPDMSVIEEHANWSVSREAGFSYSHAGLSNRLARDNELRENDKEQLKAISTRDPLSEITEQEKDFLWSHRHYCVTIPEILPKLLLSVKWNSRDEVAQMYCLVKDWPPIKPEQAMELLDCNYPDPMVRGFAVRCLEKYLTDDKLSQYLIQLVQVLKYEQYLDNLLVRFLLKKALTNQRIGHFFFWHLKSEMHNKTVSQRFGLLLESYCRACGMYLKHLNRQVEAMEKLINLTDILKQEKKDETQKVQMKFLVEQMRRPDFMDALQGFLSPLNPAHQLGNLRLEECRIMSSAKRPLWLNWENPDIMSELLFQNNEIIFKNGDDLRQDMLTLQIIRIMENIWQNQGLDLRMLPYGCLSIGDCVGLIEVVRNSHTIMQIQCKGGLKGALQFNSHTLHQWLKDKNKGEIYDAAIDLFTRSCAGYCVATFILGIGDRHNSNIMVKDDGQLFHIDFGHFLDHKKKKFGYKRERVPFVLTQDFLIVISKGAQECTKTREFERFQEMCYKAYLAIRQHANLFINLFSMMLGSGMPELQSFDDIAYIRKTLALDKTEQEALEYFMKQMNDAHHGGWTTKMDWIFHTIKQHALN
T1 sequence (P27986 whole entry partner): as the sequence (P27986 whole entry partner) above
T4 sequence (Q8NEB9 whole entry): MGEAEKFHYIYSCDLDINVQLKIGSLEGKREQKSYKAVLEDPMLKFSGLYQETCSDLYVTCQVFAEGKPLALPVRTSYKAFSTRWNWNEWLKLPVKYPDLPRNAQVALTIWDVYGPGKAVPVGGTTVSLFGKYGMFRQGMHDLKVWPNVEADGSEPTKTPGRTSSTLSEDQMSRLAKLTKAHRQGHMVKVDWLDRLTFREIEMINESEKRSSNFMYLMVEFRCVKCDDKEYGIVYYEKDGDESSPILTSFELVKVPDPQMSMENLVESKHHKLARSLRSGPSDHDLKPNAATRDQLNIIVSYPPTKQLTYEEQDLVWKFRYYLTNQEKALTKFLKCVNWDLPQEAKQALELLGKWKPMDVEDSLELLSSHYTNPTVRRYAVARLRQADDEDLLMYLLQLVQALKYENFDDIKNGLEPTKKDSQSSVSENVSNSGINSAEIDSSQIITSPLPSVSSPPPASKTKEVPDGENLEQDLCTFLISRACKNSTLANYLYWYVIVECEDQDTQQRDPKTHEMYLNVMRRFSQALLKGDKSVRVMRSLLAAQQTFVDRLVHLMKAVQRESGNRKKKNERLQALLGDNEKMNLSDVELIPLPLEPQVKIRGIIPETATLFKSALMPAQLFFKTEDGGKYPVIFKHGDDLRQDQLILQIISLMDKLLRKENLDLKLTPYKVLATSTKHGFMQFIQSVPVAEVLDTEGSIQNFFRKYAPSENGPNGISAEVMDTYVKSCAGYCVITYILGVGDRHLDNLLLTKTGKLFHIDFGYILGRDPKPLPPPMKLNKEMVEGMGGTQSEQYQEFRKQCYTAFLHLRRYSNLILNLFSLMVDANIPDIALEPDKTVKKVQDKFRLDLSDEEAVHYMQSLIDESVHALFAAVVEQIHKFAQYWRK

Row | Compound | inhibition at 1.11 µM [1] | inhibition at 1.11 µM [2] | inhibition at 1.11 µM [3] | inhibition at 1.11 µM [4] | inhibition at 1.11 µM [5] | IC50 [5] | PI3Kgamma % inh [3] | VPS34 % ihn [4] | PI3Kalpha % inh [1] | PI3Kdelta % inh [2] | PI3Kbeta % inh [5]
1 | O=S1(=O)NC=C(c2ccc(Cl)cc2)c2cc(-c3ccncc3)sc21 [Compound 27, 4-(4-chlorophenyl)-6-pyridin-4-yl-2H-thieno[3,2-e][1,2]thiazine 1,1-dioxide] | 4.9% | 46% | 12.3% | 8.5% | 98.3% | 100 to 1000 nM | – | – | – | – | –
2 | O=C1CC(c2ccc(Cl)cc2)c2cc(N3CCOCC3)sc21 (centres unmarked) [Compound 28, 4-(4-chlorophenyl)-2-morpholino-4H-cyclopenta[b]thiophen-6(5H)-one] | 15.7% | 75% | – | – | 105% | < 100 nM | 23.550% | 8.600% | – | – | –
3 | O=C1NCC(c2ccc(Cl)cc2)c2cc(-c3ccncc3)sc21 (centres unmarked) [Compound 30] | 6.3% | 36% | 11.2% | – | 94.9% | < 100 nM | – | −0.200% | – | – | –
4 | O=C1NCCCC(c2ccc(Cl)cc2)c2cc(-c3ccncc3)sc21 (centres unmarked) [Compound 31] | 16.6% | 50.5% | 6.9% | 2% | 83.3% | 100 to 1000 nM | – | – | – | – | –
5 | O=C1CC(c2ccc(Cl)cc2F)c2cc(N3CCOCC3)sc21 (centres unmarked) [Compound 117] | 26.6% | 81.2% | 35.5% | 6.21% | 101% | – | – | – | – | – | –
6 | CN(C)C(=O)[C@@H]1NC(=O)c2sc(N3CCOCC3)cc2[C@H]1c1ccc(Cl)cc1 [Compound 125] | 22.6% | 44.5% | 16.7% | 24.4% | 71.8% | – | – | – | – | – | –
7 | NC(=O)[C@@H]1NC(=O)c2sc(N3CCOCC3)cc2[C@H]1c1ccc(Cl)cc1 [Compound 126] | – | – | – | – | – | – | 36.62% | 26.74% | 39.72% | 75.35% | 98.08%
8 | O=C1NCC(c2ccc(Cl)cc2)c2cc(N3CCOCC3)sc21 (centres unmarked) [Compound 128] | – | 87% | 45.9% | 36.3% | – | – | – | – | 18.03% | – | 107.54%
9 | O=C1CCC(O)C(c2ccc(Cl)cc2)c2cc(-c3ccncc3)sc21 (centres unmarked) [Compound 129] | – | – | – | – | – | – | 3.89% | −2.80% | 2.32% | 26.46% | 59.86%
10 | N#Cc1c(N2CCOCC2)sc2c1C(c1ccc(Cl)cc1)NC2=O (centres unmarked) [Compound 134, 4-(4-chlorophenyl)-2-(morpholin-4-yl)-6-oxo-5,6-dihydro-4H-thieno[2,3-c]pyrrole-3-carbonitrile] | 33% | 76.5% | 32.2% | 9.44% | 93.8% | – | – | – | – | – | –
11 | CC1(C)CNC(=O)c2sc(-c3ccncc3)cc2C1c1ccc(Cl)cc1 (centres unmarked) [Compound 140, 4-(4-chlorophenyl)-5,5-dimethyl-2-pyridin-4-yl-4,5,6,7-tetrahydro-8H-thieno[2,3-c]azepin-8-one] | 8.99% | 67.9% | 18.1% | 19.5% | 98.3% | – | – | – | – | – | –
12 | CN1CCC(c2ccc(Cl)cc2)c2cc(N3CCOCC3)sc2C1=O (centres unmarked) [Compound 141, 4-(4-chlorophenyl)-7-methyl-2-(morpholin-4-yl)-4,5,6,7-tetrahydro-8H-thieno[2,3-c]azepin-8-one] | 4.69% | 47.2% | 6.82% | 15.1% | 77% | – | – | – | – | – | –
13 | C[Si](C)(C)CCOCN1CC(O)(c2ccc3ccccc3c2)c2cc(N3CCOCC3)sc2S1(=O)=O (centres unmarked) [Compound 144, 6-(morpholin-4-yl)-4-(2-naphthyl)-2-{[2-(trimethylsilyl)ethoxy]methyl}-3,4-dihydro-2H-thieno[3,2-e][1,2]thiazin-4-ol 1,1-dioxide] | 41.6% | 111% | 67.8% | 5.73% | 101% | – | – | – | – | – | –
14 | O=C1CC(c2ccc(Cl)cc2)c2cc(N3CCOCC3)sc21 (centres unmarked) [Compound 145] | – | – | – | – | – | – | 50.45% | −1.31% | 18.36% | 88.59% | 101.66%
15 | CC1(C)C(=O)c2sc(-c3ccncc3)cc2C1c1ccc(Cl)cc1 (centres unmarked) [Compound 147, 4-(4-chlorophenyl)-5,5-dimethyl-2-(pyridin-4-yl)-4H-cyclopenta[b]thiophen-6(5H)-one] | 3.15% | 9.91% | 2.45% | 9.65% | 65.7% | – | – | – | – | – | –
16 | N#Cc1c(N2CCOCC2)sc2c1C(c1ccc(Cl)cc1)CNC2=O (centres unmarked) [Compound 149] | 46.1% | 80.9% | 29.1% | 4.85% | 108% | – | – | – | – | – | –
17 | N#Cc1c(N2CCOCC2)sc2c1C(c1c(F)cc(Cl)cc1F)CCNC2=O (centres unmarked) [Compound 155] | 64.7% | 104% | 42.6% | 11.6% | 113% | – | – | – | – | – | –
18 | O=C1NCC(c2ccc(Cl)cc2)c2cc(-c3ccncc3)sc21 (centres unmarked) [Compound 156] | – | – | – | – | – | – | 11.17% | −0.21% | 6.34% | 36.03% | 94.95%
19 | COc1cc(C2CC(=O)c3sc(N4CCOCC4)cc32)ccc1Cl (centres unmarked) [Compound 158] | 12.9% | 100% | 65.3% | 5.41% | 108% | – | – | – | – | – | –
20 | CC1(C)C(=O)c2sc(N3CCOCC3)cc2C1c1ccc(Cl)cc1 (centres unmarked) [Compound 161, 4-(4-chlorophenyl)-5,5-dimethyl-2-morpholino-4H-cyclopenta[b]thiophen-6(5H)-one] | 12.1% | 59.3% | 19.3% | 10.8% | 92.6% | – | – | – | – | – | –
21 | CN1CC(c2ccc(Cl)cc2)c2cc(-c3ccncc3)sc2C1=O (centres unmarked) [Compound 164] | -2.24% | 14% | 5.01% | 8.39% | 76.8% | – | – | – | – | – | –
22 | O=C1CC(c2ccc(Cl)c(Cl)c2)c2cc(N3CCOCC3)sc21 (centres unmarked) [Compound 171] | 48.1% | 111% | 64.4% | 16.8% | 106% | – | – | – | – | – | –
23 | O=C1NCCC(c2ccc(Cl)c(Cl)c2)c2nc(N3CCOCC3)sc21 (centres unmarked) [Compound 173] | 24.1% | 110% | 41.5% | 41.8% | 103% | – | – | – | – | – | –
24 | O=C1NCCC(c2ccc(Cl)cc2)c2nc(N3CCOCC3)sc21 (centres unmarked) [Compound 180, 8-(4-chlorophenyl)-2-(morpholin-4-yl)-5,6,7,8-tetrahydro-4H-[1,3]thiazolo[5,4-c]azepin-4-one] | 13.9% | 87.3% | 28.7% | 55.8% | 97.4% | – | – | – | – | – | –
25 | O=C1CC(c2ccc(Cl)cc2)c2cc(-c3ccncc3)sc2N1 (centres unmarked) [Compound 182, 4-(4-chlorophenyl)-2-(pyridin-4-yl)-4,5-dihydrothieno[2,3-b]pyridin-6(7H)-one] | 2.99% | 48.5% | 3.51% | 14% | 61.2% | – | – | – | – | – | –
26 | O=C1CC(c2ccc3ccccc3n2)c2cc(N3CCOCC3)sc21 (centres unmarked) [Compound 183] | 26.9% | 60.1% | 20.6% | 9% | 90.4% | – | – | – | – | – | –
